Earlier results in patent US20070065513A1, “Stable lansoprazole formulation” (priority 2003, published 2007).
Read-outs that look alike come from different tables or passages of the source.

For `COc1ccc2[nH]c([S+]([O-])Cc3ncc(C)c(OC)c3C)nc2c1` (stereo not drawn) [Omeprazole, 5methoxy-2(((4-methoxy-3,5-dimethyl-2-pyridinyl)methyl)sulfinyl)-1H-benzimidazole], the half life (pH 6.5) is given as 18 h, the half life (pH 11) is given as “about 300 days” and the half-life of degradation (pH values below 4.0) is given as “less than 10 minutes”.
